Test results published in PubChem BioAssay (NCI).
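All cell lines were grown in 96-well plates and treated with compound for 48 hours. Definition used: TGI = concentration required for complete inhibition of growth.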

Columns and labels:
Experiment in all cases: NCI tumour cell line growth inhibition, 48 h
OVCAR-8 ovarian = system: OVCAR-8 ovarian
SF-295 CNS = system: SF-295 CNS
M14 melanoma = system: M14 melanoma
HOP-92 NSCLC = system: HOP-92 NSCLC
CAKI-1 renal = system: CAKI-1 renal
OVCAR-3 ovarian = system: OVCAR-3 ovarian
EKVX NSCLC = system: EKVX NSCLC
SW-620 colon = system: SW-620 colon
HT29 colon = system: HT29 colon
SF-539 CNS = system: SF-539 CNS
NCI-H23 lung = system: NCI-H23 lung
SK-MEL-5 melanoma = system: SK-MEL-5 melanoma
SK-OV-3 ovarian = system: SK-OV-3 ovarian
OVCAR-5 ovarian = system: OVCAR-5 ovarian
HL-60(TB) leukemia = system: HL-60(TB) leukemia
DU-145 prostate = system: DU-145 prostate
UACC-62 melanoma = system: UACC-62 melanoma
MDA-N = system: MDA-N
LOX IMVI melanoma = system: LOX IMVI melanoma
BT-549 breast = system: BT-549 breast
SN12C renal = system: SN12C renal
ACHN renal = system: ACHN renal
RPMI-8226 leukemia = system: RPMI-8226 leukemia
NCI-H226 lung = system: NCI-H226 lung
KM12 colon = system: KM12 colon
786-0 renal = system: 786-0 renal
UACC-257 melanoma = system: UACC-257 melanoma
SR leukemia = system: SR leukemia
NCI-H522 lung = system: NCI-H522 lung
U251 CNS = system: U251 CNS
HCC-2998 colon = system: HCC-2998 colon
NCI/ADR-RES ovarian = system: NCI/ADR-RES ovarian
HCT-15 colon = system: HCT-15 colon
HCT-116 colon = system: HCT-116 colon
A549 NSCLC = system: A549 NSCLC
IGROV1 ovarian = system: IGROV1 ovarian
UO-31 renal = system: UO-31 renal
TK-10 renal = system: TK-10 renal
SK-MEL-2 melanoma = system: SK-MEL-2 melanoma
PC-3 prostate = system: PC-3 prostate
K-562 leukemia = system: K-562 leukemia
SK-MEL-28 melanoma = system: SK-MEL-28 melanoma
COLO 205 colon = system: COLO 205 colon
HOP-62 NSCLC = system: HOP-62 NSCLC
MDA-MB-231 breast = system: MDA-MB-231 breast
SF-268 CNS = system: SF-268 CNS
T-47D breast = system: T-47D breast
MDA-MB-435 = system: MDA-MB-435
MOLT-4 leukemia = system: MOLT-4 leukemia
CCRF-CEM leukemia = system: CCRF-CEM leukemia
OVCAR-4 ovarian = system: OVCAR-4 ovarian
SNB-19 CNS = system: SNB-19 CNS
A498 renal = system: A498 renal
MCF7 breast = system: MCF7 breast
NCI-H460 lung = system: NCI-H460 lung
SNB-75 CNS = system: SNB-75 CNS

Measured: TGI

COC(=O)c1ccc(NC(=O)c2cc3c(cc2Br)OCO3)o1
69.8 µM: SF-268 CNS
not listed: NCI-H460 lung | SNB-75 CNS
> 100 µM: all other assays above

SCCCSCCSCCCSCCS
not listed: HOP-92 NSCLC | CAKI-1 renal | ACHN renal | RPMI-8226 leukemia | NCI-H226 lung | TK-10 renal | SK-MEL-2 melanoma | A498 renal
> 100 µM: all other assays above
